Reference: article PMC3523391 (Leukemia, 2012)

Tests used:
[1] = tested on: MOLM-13-RES cells; test: MTS cell viability assay, MOLM-13-RES; type: cell-based, human; conditions: ratio of in vitro viability potency, MOLM-13-RES vs MOLM-13
[2] = single-agent phase I-II clinical trial in AML; cited from earlier work
[3] = in vivo; set-up: species or system mice; conditions: female, athymic CrTac:NCr-Fox1(nu), mouse, po, 160 mg/kg
[4] = in mice; cited from earlier work

Compound	relative resistance of MOLM-13-RES compared with parental MOLM-13 cells [1]	response rate [2] [%]	also measured
CC(C)(C)c1cc(NC(=O)Nc2ccc(-c3cn4c(n3)sc3cc(OCCN5CCOCC5)ccc34)cc2)no1 [AC220]	approximately 23 fold	–	–
CCN(CCCOc1ccc2c(Nc3cc(CC(=O)Nc4cccc(F)c4)n[nH]3)ncnc2c1)CCOP(=O)(O)O [AZD1152]	–	25	–
COc1cc2c(N3CCN(C(=O)Nc4ccc(OC(C)C)cc4)CC3)ncnc2cc1OCCCN1CCCCC1 [MLN518]	–	–	concentration at 1 h after the last dose [3]: ~200 nM; concentration at 6 h after the last dose [3]: ~40 nM; plasma protein binding [4]: 80%
COc1cc(Nc2ncc3c(n2)-c2ccc(Cl)cc2C(c2c(F)cccc2OC)=NC3)ccc1C(=O)O [MLN8237]	–	17	–
CNC(=O)c1cc(Oc2ccc(NC(=O)Nc3ccc(Cl)c(C(F)(F)F)c3)cc2)ccn1 [Sorafenib]	approximately 60 fold	–	–
